The assay deals with IK1 (inward rectifier K+ current). Description: voltage clamp measurement of IK1 block in isolated guinea pig ventricular myocytes. Type of assay: cell-based. Particulars: 1 μM. The protocol: Guinea pig ventricular myocytes were isolated using a modification of the procedure described by Mitra R and Morad M., "A Uniform Enzymatic Method for Dissociation of Myocytes from Hearts and Stomachs of Nertilorates", Am. J. Physiol. 249:H1056-60 (1985). Excised hearts were perfused through the aorta (retrograde fashion) at a rate of 10 ml/min with oxygenated, warmed (37° C.) solutions described below. The heart was initially perfused for 7 minutes with a Tyrode's solution containing, in mM: 132 NaCl, 4 KCl, 1.2 MgCl2, 10 HEPES (formal name N-2-Hydroxyethylpiperazine-N-2-ethanesulfonic acid), 5 glucose, pH=7.2. The head was then perfused with the same nominally Ca^2+ -free solution containing 150 units/ml Type II collagenase (Worthington) and 0.5 units/ml Type XIV protease (Sigma) for 8 minutes. This perfusate was followed by a Tyrode's solution containing 0.2 mM CaCl2 (without enzymes) for 5 minutes. The digested ventricles were cut into small pieces and gently shaken until cells were visibly dispersed. […]
The suction microelectrode technique described by Giles, W. R. and Shibata, E. F., "Voltage clamp of bull-frog cardiac pacemaker cells: a quantitative, analysis of potassium currents". […]
To record K^+ currents, the cells were bathed in a Ca^2+ -free Tyrode's :solution containing […] nisoldipine. […] Data was analyzed as % block from control membrane currents. […]

As for `Cc1cccc(NC(=O)N[C@@H]2N=C(c3ccccc3)c3ccccc3N(C)C2=O)c1` [Compound 4, (R)-N-(2,3-dihydro-1-methyl-2-oxo-5-phenyl-1H-1,4-benzodiazepin-3-yl)-N'-(3-methylphenyl)urea], the “effect on IK1” value was “Little or no effect”.

These data come from US5428031A, “Methods of treating cardiac arrhythmia” (priority 1993, dated 1995).
